Experiments:
[1] = system: bacterial proteomes; test: ABPP labeling of bacterial proteomes, labeling profile; assay type: binding; settings: 50 μM probe
Source text: The library of beta-lactones to be tested comprised compounds with aliphatic or aromatic substitutions varying in length and branching. To evaluate the target selectivity, the beta-lactones were screened against several gram-positive and gram-negative bacterial proteomes including Pseudomonas putida, Listeria welshimeri, Bacillus licheniformis, Bacillus subtilis and Escherichia coli, which are phylogenetically related to pathogenic strains. In addition, mouse liver cytosol was included as an eukaryotic reference proteome. Initial labeling experiments were carried out by adding individual probes at 50 μM concentration to the proteome which is sufficient to achieve full saturation of most targets. […] As an example, labeling of L. welshimeri cytosolic and membrane proteomes as well as B. subtilis cytosolic proteome with a subset of the most complementary probes is shown in FIGS. 9A and 9B. […] Most of the targeted proteins were of low abundance as shown by the direct comparison of the relative intensities observed with Coomassie staining vs. fluorescence scanning (FIG. 11).
(§1) Proteome samples were adjusted to a final concentration of 1 mg protein/mL by dilution in PBS prior to probe labeling. Experiments for visualization by 1D SDS-PAGE were carried out in 43 μL total volume and those for affinity enrichment in 1892 μL total volume, such that once CC reagents were added, the total reaction volume was 50 μL and 2 mL, respectively. Reactions were initiated by addition of the probe and allowed to incubate for 60 min at room temperature. For heat controls the proteome was denatured with 1 μL of 43% SDS at 95° C. for 6 min and cooled to room temperature before the probe was applied. Following incubation, reporter tagged-azide reagents (13 μM rhodamine-azide for analytical or 20 μM rhodamine-biotin-azide for preparative scale) were added followed by 1 mM TCEP and 100 μM ligand. Samples were gently vortexed and the cycloaddition initiated by the addition of 1 mM CuSO4. The reactions were incubated at room temperature for 1 h (Speers, J. Amer. Chem. Soc. 125 (2003), 4686).

[2] = target: T1, ClpP (Listeria monocytogenes serovar 1/2a, UniProt Q9RQI6); test: In vivo labeling of Listeria proteomes; assay type: cell-based; settings: living L. monocytogenes EGDe, cytosol, 2 h incubation
T1 construct: endogenous in cells; host or cells: living Listeria monocytogenes EGDe, stationary phase
Description: For analytical and preparative in vivo studies, Listeria were grown to stationary phase and harvested by centrifugation at 4,000 rpm 1 h after entrance in the stationary phase (1.5 ml for analytical and 15 ml for preparative studies). The cell pellets were washed once with PBS and resuspended in 100 μL and 500 μL PBS for analytical and preparative studies, respectively. The cell suspensions were incubated for 2 h with varying concentrations of probe at room temperature. Probes were applied from DMSO stocks whereby DMSO never exceeded 2% in the final solution. For preparative experiments, 50 μM of the probes was added to the cells resuspended in PBS. After incubation, the cells were washed thoroughly three times with PBS to remove excess probe from the supernatant. Subsequently the cells were lysed in 100 μL (500 μL) PBS by sonication with a Bandelin Sonopuls with 3×20 sec. pulsed at 70% max. power. For analytical experiments 44 μL proteome were used to append a reporter tag via CC, such that once CC reagents were added, the total reaction volume was 50 μL. In preparative purposes the total volume of 500 μL it was consumed per experiment. Reporter tagged-azide reagents (13 μM rhodamine-azide for analytical or 20 μM rhodamine-biotin-azide for preparative scale) were added followed by 1 mM TCEP and 100 μM ligand. Samples were gently vortexed and the cycloaddition initiated by the addition of 1 mM CuSO4. The reactions were incubated at room temperature for 1 h. For analytical gel electrophoresis, 50 μL 2×SDS loading buffer were added and 50 μL applied on the gel. Fluorescence was recorded in a Fujifilm Las-3000 Fluoreszenz Darkbox with a Fujinon VRF 43LMD Lens, 605DF40 filter and 520 nm EPI excitation wavelength.

[3] = system: LLO haemolytic activity of L. monocytogenes EGDe; test: LLO haemolytic activity testing of culture supernatants; assay type: cell-based, Listeria monocytogenes EGDe
Description: Overnight cultures of L. monocytogenes EGDe were harvested by centrifugation and resuspended in an equal volume of fresh BHB medium. In 1.5 mL Eppendorf tubes, 400 μL of BHB medium were inoculated with 4 μL of the resuspended Listeria culture and 4 μL of a corresponding beta-lactone stock in DMSO. The final concentrations were 800 μM, 400 μM, 200 μM, 100 μM and DMSO as control. The amount of DMSO in all tests was 1% of the medium. After mixing, the test tubes were incubated under continuous shaking at 200 rpm at 37° C. for 16 h. Then, cells were centrifuged and the supernatants filtered sterile by passing them through a 0.2 μm pore size filter. Haemolytic activity of LLO in the culture supernatants was quantitatively investigated according to a method described in J. Food Safety 1998, 18: 197-203 (incorporated herein by reference) with some modifications. In Nunclon™ 96-well plates with round shaped wells 100 μL of serial dilutions of the supernatants in PBS were added per well and incubated with 100 μL of 3% SRBC (sheep red blood cells) resuspended in PBS for 15 min at 37° C. under gentle shaking. The 96-well plates were centrifuged at 600 rpm for 5 min and the minimum dilution at which intact blood cells began to form a pellet was recorded. Controls with no lactone were set 100%. Buffer only controls and pure BHB medium yielded no haemolysis.

[4] = system: lipase/acylhydrolase (LipAc); test: ABPP probe dose down in proteome, lipase/acylhydrolase labeling; assay type: binding; settings: L. welshimeri proteome, concentration range 10 μM to 5 nM
Description: To estimate the strength of probe interactions with proteins in the proteome, we compared the reactivity profiles of selected beta-lactones across a broad concentration range from 10 μM to 5 nM.
as §1

[5] = system: serine proteases; test: Competitive labeling with PMSF; assay type: binding; settings: 100 fold excess, 15 min prior to beta-lactone probes
Description: (§2) FIG. 13: Active site competition assays and IC50. A) Competition experiment with KAS II with and without 100 fold excess of cerulenin in presence of the beta-lactone probe G2. B) Competition experiments with several serine proteases with and without 100 fold excess of PMSF in presence of the corresponding beta-lactone probes (LWC: L. welshimeri cytosol, LWM: L. welshimeri membrane, BSC: B. subtilis cytosol). C) IC50 of 5 μM for SFGH. For a list of abbreviations, please refer to Example 6, Table 1. The term PNB is also referred to herein as PNBE.
(§3) In competitive assays, a 100 fold excess of PMSF or cerulenin was added to the proteome 15 min prior to beta-lactone addition.

[6] = system: KAS II; test: Competitive labeling with cerulenin; assay type: binding; settings: 100 fold excess, 15 min prior to beta-lactone probe G2
Description: as §2, §3

[7] = system: haemolysis abilities of Staphylococcus aureus; test: Blood agar plate-based haemolysis assay; assay type: cell-based; settings: total amount of 250 nmol applied on Whatman Cards, 5% sheep blood agar, 37° C. over night
Description: FIG. 3: Blood agar plate-based assay illustrating that beta-lactones have an effect on the haemolysis abilities of Staphylococcus aureus. 2.5 μL of S. aureus LB dilution (OD600=0.13 corresponding to approx. 1×10^8 cfu/ml) and 2.5 μL DMSO/lactone in DMSO were applied on Whatman Cards placed on 5% sheep blood agar plates (Heipha Diagnostika, Eppelheim, Germany) and incubated at 37° C. over night. A) Direct comparison of beta-lactones as shown in FIG. 2 at a total amount of 250 nmol applied on Whatman Cards. B) Dose down with beta-lactone compounds D3, E2 and G2 at applied concentrations of 100 mM, 50 mM, 25 mM, 12.5 mM, 6.25 mM and 0 mM (corresponding to total amounts of 250 nmol, 125 nmol, 62.5 nmol, 31.3 nmol, 15.6 nmol and 0 nmol, respectively).
2.5 μl, of S. aureus LB dilution (OD600 0.13 corresponding to approx. 1×10^8 cfu/ml) and 2.5 μL DMSO/beta-lactone in DMSO were applied on Whatman Cards placed on 5% sheep blood agar plates (Heipha Diagnostika, Eppelheim, Germany) and incubated at 37° C. over night. FIG. 3A directly compares the β-lactones at a total amount of 250 nmol applied on Whatman Cards. […] For D3 almost no haemolysis is observed down to a total amount of 125 nmol lactone. FIG. 5 illustrates the haemolytic activity of beta-lactone compounds D3, E2 and G2 plotted against the total amount of the respective beta-lactone, whereby a haemolysis zone size of 1.5 mm was set as 100% haemolytic activity. The data shown in FIG. 5 has been corroborated by further experimental testing.
Haemolysis was tested on blood agar plates (5% sheep blood; Heipha Diagnostika, Eppelheim, Germany). Sterile circles of Whatman cards (No. Y) with 5 mm diameter were placed on agar plates and inoculated with 2.5 μL of the corresponding beta-lactone/DMSO and 2.5 μL stationary phase culture of S. aureus diluted to […]. The plates were incubated over night at 37° C. and the diameters of the zones around the bacterial colonies were precisely measured using a vernier caliper.

[8] = system: proteolysis abilities of Staphylococcus aureus; test: Milk agar plate-based proteolysis assay; assay type: cell-based; settings: for proteolytic activity of S. aureus: total amount of 250 nmol applied on Whatman Cards, 1% skim milk LB agar, 37° C. over night
Description: FIG. 6: Milk agar plate-based assay illustrating that beta-lactones have an effect on the proteolysis abilities of Staphylococcus aureus. 2.5 μL of S. aureus LB dilution (OD600=0.13 corresponding to approx. 1×10^8 cfu/ml) and 2.5 μL DMSO/beta-lactone in DMSO were applied on Whatman Cards placed on 1% skim milk LB agar plates and incubated at 37° C. over night. A) Direct comparison of beta-lactones as shown in FIG. 2 at a total amount of 250 nmol applied on Whatman Cards. B) Dose down with beta-lactones D3, E2 and G2 at applied concentrations of 100 mM, 50 mM, 25 mM, 12.5 mM, 6.25 mM and 0 mM (corresponding to total amounts of 250 nmol, 125 nmol, 62.5 nmol, 31.3 nmol, 15.6 nmol and 0 nmol, respectively). C) Proteolysis zone size plotted against the total amount of the respective beta-lactone.
2.5 μL of S. aureus LB dilution (OD600=0.13 corresponding to approx. 1×10^8 cfu/ml) and 2.5 μL DMSO/beta-lactone in DMSO were applied on Whatman Cards placed on 1% skim milk LB agar plates and incubated at 37° C. over night. FIG. 6A directly compares the β-lactones at a total amount of 250 nmol applied on Whatman Cards. […] For D3 and E2 almost no proteolysis is observed down to a total amount of 125 nmol of the respective beta-lactone. FIG. 6C illustrates that the proteolysis zone size plotted against the total amount of beta-lactone visualizes the strong effects particularly of D3 and E2.

T1 sequence (Q9RQI6 whole entry): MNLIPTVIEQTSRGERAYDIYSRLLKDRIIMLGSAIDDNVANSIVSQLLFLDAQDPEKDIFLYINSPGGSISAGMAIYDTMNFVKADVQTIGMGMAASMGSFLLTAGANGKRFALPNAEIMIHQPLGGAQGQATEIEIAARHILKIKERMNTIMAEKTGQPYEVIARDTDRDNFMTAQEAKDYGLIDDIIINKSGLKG

C#CCCCC1OC(=O)C12CCCCC2 (stereo not shown) [O1, 4-(4-pentyn-1-yl)oxetan-2-one-3-spirocyclohexane]
enzyme labeling in proteomes [1]: decreased the number of specific labeling events

C#CCCC[C@@H]1OC(=O)[C@H]1CCCCCCCC(=O)Sc1ccccc1 (relative stereo) [N1, trans-S-phenyl 8-(2-oxo-4-(4-pentyn-1-yl)oxetan-3-yl)octanethioate]
ClpP labeling (probe potency ranking) [2]: most potent probes
EC50 ([3]; Listeria monocytogenes, Erythrocyte, cultures grown 16 h with lactone, sheep red blood cells, read-out: EC50 of reduction of LLO haemolytic activity): < 100 µM

C#CCCC[C@@H]1OC(=O)[C@H]1c1ccc2ccccc2c1 (relative stereo) [P1, trans-3-(2-naphthyl)-4-(4-pentyn-1-yl)oxetan-2-one, reference compound]
probe concentration down to which LipAc is labeled [4]: 160 nM

O=S(=O)(F)Cc1ccccc1 [PMSF]
effect of pre-incubation on probe labeling of serine proteases [5]: prevented subsequent probe labeling

C#CCCCC1CC(=O)O1 (stereo not shown) [A1, 4-(4-Pentyn-1-yl)oxetan-2-one]
enzyme labeling in proteomes [1]: poor in enzyme labeling

C/C=C/C/C=C/CCC(=O)[C@H]1O[C@H]1C(N)=O [cerulenin]
effect of pre-incubation on probe labeling of KAS II [6]: prevented subsequent probe labeling

C#CCCCC1OC(=O)C1c1ccc(OC)cc1 (stereo not drawn) [E2, trans-3-(4-methoxyphenyl)-4-(4-pentyn-1-yl)oxetan-2-one]
haemolytic activity of S. aureus [7]: strongly reduce
total amount down to which almost no proteolysis is observed ([8]; dose down 250-15.6 nmol): 125 nmol
proteolytic activity of S. aureus [8]: strongly reduce

C#CCCC[C@H]1OC(=O)[C@H]1C(C)(C)C (relative stereo) [L1, cis-3-dimethylethyl-4-(4-pentyn-1-yl)oxetan-2-one]
enzyme labeling in proteomes [1]: decreased the number of specific labeling events

C#CCCCC1OC(=O)C1(C)C (stereo not drawn) [M1, trans-3,3-dimethyl-4-(4-pentyn-1-yl)oxetan-2-one, reference compound]
ClpP labeling (probe potency ranking) [2]: did not label and inhibit ClpP
haemolytic activity of S. aureus [7]: no effect
proteolytic activity of S. aureus [8]: no effect
effect on haemolysis ([3]; control probe): no effect
lysis of blood cells by culture supernatant ([3]; fourfold dilution of supernatant, even at 800 μM): complete lysis
